# Patent publication US8586747B2, “3,3-dimethyl tetrahydroquinoline derivatives” (Hoffmann-La Roche Inc., priority 2010, dated 2013)
# System: AMP-activated protein kinase (AMPK)
# Test: ADP Quest assay for AMPK activators
# Format: biochemical
# Set-up: key: fold AMPK activation with vs without activator at 30 µM
# Conditions: fold of AMPK activation to phosphorylate SAMS peptide without and with an activator at the concentration of 30 µM
# Summary of the method: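 E30, the fold increase in SAMS peptide phosphorylation at 30 µM compound relative to no activator, is derived from kinetic fluorescent detection of ADP (ex 530, em 590 nm). AMPK starts the ATP-containing reaction at room temperature; compounds span […] by 2-fold steps, AMP serves as reference.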
row,E30,SMILES
1,1.22,"CC1(C)Cc2c(C(=O)NS(=O)(=O)C3CC3)ccc(F)c2NC1c1cccc(N2CCOCC2)c1 (stereo not shown) [Example 150, Cyclopropanesulfonic acid [8-fluoro-3,3-dimethyl-2-(3-morpholin-4-yl-phenyl)-1,2,3,4-tetrahydro-quinoline-5-carbonyl]-amide]"
2,1.66,"CC(C)(C)c1ccc(-c2cccc(C3Nc4ccc(F)c(C(=O)O)c4CC3(C)C)c2)cc1 (stereo not shown) [Example 151, 2-(4′-tert-Butyl-biphenyl-3-yl)-6-fluoro-3,3-dimethyl-1,2,3,4-tetrahydro-quinoline-5-carboxylic acid]"
3,1.41,"Cc1ccccc1N1CCN(c2cccc(C3Nc4ccc(C(=O)O)cc4CC3(C)C)c2)CC1 (stereo not shown) [Example 152, 3,3-Dimethyl-2-[3-(4-o-tolyl-piperazin-1-yl)-phenyl]-1,2,3,4-tetrahydroquinoline-6-carboxylic acid]"
4,1.27,"CC1(C)Cc2cc(C(=O)NS(=O)(=O)C3CC3)ccc2NC1c1cccc(N2CC(F)C2)c1 (stereo not shown) [Example 153, Cyclopropanesulfonic acid {2-[3-(3-fluoro-azetidin-1-yl)-phenyl]-3,3-dimethyl-1,2,3,4-tetrahydro-quinoline-6-carbonyl}-amide]"
5,1.24,"CC1(C)Cc2cc(C(=O)NS(C)(=O)=O)ccc2NC1c1cccc(N2CC(F)C2)c1 (stereo not shown) [Example 154, N-{2-[3-(3-Fluoro-azetidin-1-yl)-phenyl]-3,3-dimethyl-1,2,3,4-tetrahydro-quinoline-6-carbonyl}-methanesulfonamide]"
6,1.19,"Cc1ccccc1N1CCN(c2cccc(C3Nc4ccc(C(=O)NS(C)(=O)=O)cc4CC3(C)C)c2)CC1 (stereo not shown) [Example 155, N-{3,3-Dimethyl-2-[3-(4-o-tolyl-piperazin-1-yl)-phenyl]-1,2,3,4-tetrahydro-quinoline-6-carbonyl}-methanesulfonamide]"
7,1.66,"CC(C)(C)c1ccc(-c2cccc(C3Nc4ccc(F)c(C(=O)NS(=O)(=O)C5CC5)c4CC3(C)C)c2)cc1 (stereo not shown) [Example 156, Cyclopropanesulfonic acid [2-(4′-tert-butyl-biphenyl-3-yl)-6-fluoro-3,3-dimethyl-1,2,3,4-tetrahydro-quinoline-5-carbonyl]-amide]"
8,1.36,"CC(C)(C)c1ccc(-c2cccc(C3Nc4ccc(F)c(C(=O)NS(C)(=O)=O)c4CC3(C)C)c2)cc1 (stereo not shown) [Example 157, N-[2-(4′-tert-Butyl-biphenyl-3-yl)-6-fluoro-3,3-dimethyl-1,2,3,4-tetrahydro-quinoline-5-carbonyl]-methanesulfonamide]"
9,1.34,"CC1(C)Cc2cc(C(=O)O)ccc2NC1c1ccccc1 (stereo not shown) [Example 158, 3,3-Dimethyl-2-phenyl-1,2,3,4-tetrahydro-quinoline-6-carboxylic acid]"
10,1.31,"CC(C)NC(=O)c1ccc(-c2cccc(C3Nc4ccc(C(=O)O)cc4CC3(C)C)c2)cc1 (stereo not shown) [Example 159, 2-(4′-Isopropylcarbamoyl-biphenyl-3-yl)-3,3-dimethyl-1,2,3,4-tetrahydro-quinoline-6-carboxylic acid]"
11,1.23,"CC(C)(C)NC(=O)c1ccc(-c2cccc(C3Nc4ccc(C(=O)NS(C)(=O)=O)cc4CC3(C)C)c2)cc1 (stereo not shown) [Example 160, 3′-(6-Methanesulfonylaminocarbonyl-3,3-dimethyl-1,2,3,4-tetrahydro-quinolin-2-yl)-biphenyl-4-carboxylic acid tert-butylamide]"
12,1.21,"CC1(C)Cc2cc(C(=O)NS(=O)(=O)C3CC3)ccc2NC1c1cccc(-c2ccc(S(C)(=O)=O)cc2)c1 (stereo not shown) [Example 161, Cyclopropanesulfonic acid [2-(4′-methanesulfonyl-biphenyl-3-yl)-3,3-dimethyl-1,2,3,4-tetrahydro-quinoline-6-carbonyl]-amide]"
13,1.2,"CC(C)(C)NC(=O)c1ccc(-c2cccc(C3Nc4ccc(C(=O)O)cc4CC3(C)C)c2)cc1 (stereo not shown) [Example 162, 2-(4′-tert-Butylcarbamoyl-biphenyl-3-yl)-3,3-dimethyl-1,2,3,4-tetrahydro-quinoline-6-carboxylic acid]"
14,3.68,"CC(C)(Nc1ccccc1C1Nc2ccc(C(=O)O)cc2CC1(C)C)C(=O)O (stereo not shown) [Example 163, 2-[2-(1-Carboxy-1-methyl-ethylamino)-phenyl]-3,3-dimethyl-1,2,3,4-tetrahydro-quinoline-6-carboxylic acid]"
15,1.78,"CC1(C)Cc2cc(C(=O)O)ccc2NC1c1ccccc1NC1(C(=O)O)CC1 (stereo not shown) [Example 164, 2-[2-(1-Carboxy-cyclopropylamino)-phenyl]-3,3-dimethyl-1,2,3,4-tetrahydro-quinoline-6-carboxylic acid]"
16,1.53,"CN1CCC(NC(=O)c2cccc(C3Nc4ccc(C(=O)O)cc4CC3(C)C)c2)C1 (stereo not shown) [Example 165, 3,3-dimethyl-2-(3-(1-methylpyrrolidin-3-ylcarbamoyl)phenyl)-1,2,3,4-tetrahydroquinoline-6-carboxylic acid]"
17,1.43,"CC(C)S(=O)(=O)Nc1cccc(C2Nc3ccc(C(=O)O)cc3CC2(C)C)c1 (stereo not shown) [Example 166, 3,3-Dimethyl-2-(3-(1-methylethylsulfonamido)phenyl)-1,2,3,4-tetrahydroquinoline-6-carboxylic acid]"

row,E30,SMILES
1,1.4,"CC1(C)Cc2cc(C(=O)O)ccc2NC1c1cccc(C(=O)NC2CCOC2)c1 (stereo not shown) [Example 167, 3,3-Dimethyl-2-(3-(tetrahydrofuran-3-ylcarbamoyl)phenyl)-1,2,3,4-tetrahydroquinoline-6-carboxylic acid]"
2,1.39,"CC1(C)Cc2cc(C(=O)O)ccc2NC1c1ccc(NS(=O)(=O)c2ccccc2)cc1 (stereo not shown) [Example 168, 3,3-Dimethyl-2-(4-(phenylsulfonamido)phenyl)-1,2,3,4-tetrahydroquinoline-6-carboxylic acid]"
3,1.38,"CC(=O)Nc1ccc(S(=O)(=O)Nc2cccc(C3Nc4ccc(C(=O)O)cc4CC3(C)C)c2)cc1 (stereo not shown) [Example 169, 2-(3-(4-Acetamidophenylsulfonamido)phenyl)-3,3-dimethyl-1,2,3,4-tetrahydroquinoline-6-carboxylic acid]"
4,1.36,"CC1(C)Cc2cc(C(=O)O)ccc2NC1c1cccc(C(=O)NC2CC2)c1 (stereo not shown) [Example 170, 2-(3-(Cyclopropylcarbamoyl)phenyl)-3,3-dimethyl-1,2,3,4-tetrahydroquinoline-6-carboxylic acid]"
5,1.36,"CC1(C)Cc2cc(C(=O)O)ccc2NC1c1cccc(C(=O)N2CCCC2)c1 (stereo not shown) [Example 171, 3,3-Dimethyl-2-(3-(pyrrolidine-1-carbonyl)phenyl)-1,2,3,4-tetrahydroquinoline-6-carboxylic acid]"
6,1.34,"CC1(C)Cc2cc(C(=O)O)ccc2NC1c1cccc(C(=O)NC2CCC2)c1 (stereo not shown) [Example 172, 2-(3-(Cyclobutylcarbamoyl)phenyl)-3,3-dimethyl-1,2,3,4-tetrahydroquinoline-6-carboxylic acid]"
7,1.24,"CC(C)NC(=O)c1cccc(C2Nc3ccc(C(=O)O)cc3CC2(C)C)c1 (stereo not shown) [Example 173, 2-(3-(Isopropylcarbamoyl)phenyl)-3,3-dimethyl-1,2,3,4-tetrahydroquinoline-6-carboxylic acid]"
8,1.54,"CC(C)C(=O)Nc1cc(C2Nc3ccc(C(=O)O)cc3CC2(C)C)ccc1F (stereo not shown) [Example 174, 2-(4-Fluoro-3-isobutyramidophenyl)-3,3-dimethyl-1,2,3,4-tetrahydroquinoline-6-carboxylic acid]"
9,1.5,"CC1(C)Cc2cc(C(=O)O)ccc2NC1c1cccc(C(=O)NS(=O)(=O)c2ccccc2)c1 (stereo not shown) [Example 175, 3,3-Dimethyl-2-(3-(phenylsulfonylcarbamoyl)phenyl)-1,2,3,4-tetrahydroquinoline-6-carboxylic acid]"
10,1.44,"CC1(C)Cc2cc(C(=O)O)ccc2NC1c1cccc(C(=O)NS(=O)(=O)C2CC2)c1 (stereo not shown) [Example 176, 2-(3-(Cyclopropylsulfonylcarbamoyl)-phenyl)-3,3-dimethyl-1,2,3,4-tetrahydroquinoline-6-carboxylic acid]"
11,1.4,"CC(C)C(=O)Nc1cc(C2Nc3ccc(C(=O)O)cc3CC2(C)C)ccc1Cl (stereo not shown) [Example 177, 2-(4-Chloro-3-isobutyramidophenyl)-3,3-dimethyl-1,2,3,4-tetrahydroquinoline-6-carboxylic acid]"
12,1.36,"CC(C)C(=O)Nc1ccc(C2Nc3ccc(C(=O)O)cc3CC2(C)C)cc1 (stereo not shown) [Example 178, 2-(4-Isobutyramidophenyl)-3,3-dimethyl-1,2,3,4-tetrahydroquinoline-6-carboxylic acid]"
13,1.33,"CC1(C)Cc2cc(C(=O)O)ccc2NC1c1cccc(C(=O)NS(C)(=O)=O)c1 (stereo not shown) [Example 179, 3,3-Dimethyl-2-(3-(methylsulfonylcarbamoyl)-phenyl)-1,2,3,4-tetrahydroquinoline-6-carboxylic acid]"
14,1.32,"CC1(C)Cc2cc(C(=O)O)ccc2NC1c1ccc(F)c(NC(=O)c2ccccn2)c1 (stereo not shown) [Example 180, 2-(4-Fluoro-3-(picolinamido)-phenyl)-3,3-dimethyl-1,2,3,4-tetrahydroquinoline-6-carboxylic acid]"
15,1.31,"CC1(C)Cc2cc(C(=O)O)ccc2NC1c1ccc(NS(=O)(=O)c2ccc(F)cc2)cc1 (stereo not shown) [Example 181, 2-(4-(4-Fluorophenylsulfonamido)phenyl)-3,3-dimethyl-1,2,3,4-tetrahydroquinoline-6-carboxylic acid]"
16,1.26,"CC1(C)Cc2cc(C(=O)O)ccc2NC1c1ccc(NC(=O)c2ccc(F)cc2)cc1 (stereo not shown) [Example 182, 2-(4-(4-Fluorobenzamido)phenyl)-3,3-dimethyl-1,2,3,4-tetrahydroquinoline-6-carboxylic acid]"
17,1.25,"Cc1ccc(S(=O)(=O)Nc2ccc(C3Nc4ccc(C(=O)O)cc4CC3(C)C)cc2)cc1 (stereo not shown) [Example 183, 3,3-Dimethyl-2-(4-(4-methylphenylsulfonamido)phenyl)-1,2,3,4-tetrahydroquinoline-6-carboxylic acid]"
